Source: PubChem BioAssay (NCI)
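A five-concentration, 48-hour dose response in 96-well plates underlies each endpoint, interpolated linearly between surrounding concentrations. At the GI50, growth is halved. Definition used: TGI = concentration required for complete inhibition of growth.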

How the values were obtained:
Experiment in all cases: NCI-60 cell line screen, 48 h
ACHN renal = system: ACHN renal
HL-60(TB) leukemia = system: HL-60(TB) leukemia
SK-MEL-2 melanoma = system: SK-MEL-2 melanoma
M14 melanoma = system: M14 melanoma
COLO 205 colon = system: COLO 205 colon
NCI-H522 lung = system: NCI-H522 lung
T-47D breast = system: T-47D breast
SR leukemia = system: SR leukemia
HOP-92 NSCLC = system: HOP-92 NSCLC
HT29 colon = system: HT29 colon
LOX IMVI melanoma = system: LOX IMVI melanoma
NCI-H460 lung = system: NCI-H460 lung
HCT-15 colon = system: HCT-15 colon
HS 578T breast = system: HS 578T breast
UACC-62 melanoma = system: UACC-62 melanoma
SNB-19 CNS = system: SNB-19 CNS
RPMI-8226 leukemia = system: RPMI-8226 leukemia
OVCAR-5 ovarian = system: OVCAR-5 ovarian
SK-OV-3 ovarian = system: SK-OV-3 ovarian
SF-295 CNS = system: SF-295 CNS
MDA-MB-231 breast = system: MDA-MB-231 breast
EKVX NSCLC = system: EKVX NSCLC
A549 NSCLC = system: A549 NSCLC
HOP-62 NSCLC = system: HOP-62 NSCLC
TK-10 renal = system: TK-10 renal
UO-31 renal = system: UO-31 renal
MCF7 breast = system: MCF7 breast
OVCAR-3 ovarian = system: OVCAR-3 ovarian
786-0 renal = system: 786-0 renal
U251 CNS = system: U251 CNS
OVCAR-8 ovarian = system: OVCAR-8 ovarian
HCC-2998 colon = system: HCC-2998 colon
SN12C renal = system: SN12C renal
MALME-3M melanoma = system: MALME-3M melanoma
UACC-257 melanoma = system: UACC-257 melanoma
RXF 393 renal = system: RXF 393 renal
A498 renal = system: A498 renal
SF-539 CNS = system: SF-539 CNS
K-562 leukemia = system: K-562 leukemia
PC-3 prostate = system: PC-3 prostate
SK-MEL-28 melanoma = system: SK-MEL-28 melanoma
IGROV1 ovarian = system: IGROV1 ovarian
OVCAR-4 ovarian = system: OVCAR-4 ovarian
MDA-MB-435 = system: MDA-MB-435
SW-620 colon = system: SW-620 colon
NCI-H23 lung = system: NCI-H23 lung
SNB-75 CNS = system: SNB-75 CNS
BT-549 breast = system: BT-549 breast
HCT-116 colon = system: HCT-116 colon
CAKI-1 renal = system: CAKI-1 renal
MOLT-4 leukemia = system: MOLT-4 leukemia
SK-MEL-5 melanoma = system: SK-MEL-5 melanoma
DU-145 prostate = system: DU-145 prostate
KM12 colon = system: KM12 colon
NCI/ADR-RES ovarian = system: NCI/ADR-RES ovarian
NCI-H226 lung = system: NCI-H226 lung
SF-268 CNS = system: SF-268 CNS
CCRF-CEM leukemia = system: CCRF-CEM leukemia

O=c1[nH]c(=O)n(C2CC(O)C(CO)O2)cc1C(F)(F)F (stereo unspecified)
GI50 (ACHN renal): 1.3 µM
TGI (ACHN renal): > 100 µM
GI50 (HL-60(TB) leukemia): 0.409 µM
GI50 (SK-MEL-2 melanoma): > 100 µM
TGI (SK-MEL-2 melanoma): > 100 µM
GI50 (M14 melanoma): 1.01 µM
TGI (M14 melanoma): > 34.5 µM
GI50 (COLO 205 colon): 25 µM
TGI (COLO 205 colon): > 100 µM
GI50 (NCI-H522 lung): 18.3 µM
TGI (NCI-H522 lung): > 100 µM
GI50 (T-47D breast): 3.34 µM
TGI (T-47D breast): > 100 µM
GI50 (SR leukemia): 1.02 µM
TGI (SR leukemia): > 100 µM
GI50 (HOP-92 NSCLC): > 100 µM
TGI (HOP-92 NSCLC): > 100 µM
GI50 (HT29 colon): 33.8 µM
TGI (HT29 colon): > 100 µM
GI50 (LOX IMVI melanoma): 0.936 µM
TGI (LOX IMVI melanoma): > 100 µM
GI50 (NCI-H460 lung): 0.337 µM
TGI (NCI-H460 lung): > 100 µM
GI50 (HCT-15 colon): 46 µM
TGI (HCT-15 colon): > 100 µM
GI50 (HS 578T breast): > 100 µM
TGI (HS 578T breast): > 100 µM
GI50 (UACC-62 melanoma): 2.59 µM
TGI (UACC-62 melanoma): > 91.8 µM
GI50 (SNB-19 CNS): 2.96 µM
TGI (SNB-19 CNS): > 100 µM
GI50 (RPMI-8226 leukemia): > 20.3 µM
TGI (RPMI-8226 leukemia): > 100 µM
GI50 (OVCAR-5 ovarian): > 100 µM
TGI (OVCAR-5 ovarian): > 100 µM
GI50 (SK-OV-3 ovarian): 10.1 µM
TGI (SK-OV-3 ovarian): > 100 µM
GI50 (SF-295 CNS): 2.79 µM
TGI (SF-295 CNS): > 100 µM
GI50 (MDA-MB-231 breast): > 100 µM
TGI (MDA-MB-231 breast): > 100 µM
GI50 (EKVX NSCLC): > 54.1 µM
TGI (EKVX NSCLC): > 100 µM
GI50 (A549 NSCLC): 3.35 µM
TGI (A549 NSCLC): > 100 µM
GI50 (HOP-62 NSCLC): 3.68 µM
TGI (HOP-62 NSCLC): > 100 µM
GI50 (TK-10 renal): > 100 µM
TGI (TK-10 renal): > 100 µM
GI50 (UO-31 renal): 1.75 µM
TGI (UO-31 renal): > 100 µM
GI50 (MCF7 breast): 0.038 µM
GI50 (OVCAR-3 ovarian): > 77.4 µM
TGI (OVCAR-3 ovarian): > 100 µM
GI50 (786-0 renal): 0.464 µM
GI50 (U251 CNS): 4.42 µM
TGI (U251 CNS): > 100 µM
GI50 (OVCAR-8 ovarian): 5.12 µM
TGI (OVCAR-8 ovarian): > 100 µM
GI50 (HCC-2998 colon): 11.3 µM
TGI (HCC-2998 colon): > 100 µM
GI50 (SN12C renal): 3.8 µM
TGI (SN12C renal): > 100 µM
GI50 (MALME-3M melanoma): > 49.9 µM
TGI (MALME-3M melanoma): > 100 µM
GI50 (UACC-257 melanoma): 8.61 µM
TGI (UACC-257 melanoma): > 100 µM
GI50 (RXF 393 renal): 9.38 µM
TGI (RXF 393 renal): > 100 µM
TGI (A498 renal): > 92 µM
GI50 (SF-539 CNS): 0.456 µM
TGI (SF-539 CNS): 7.21 µM
TGI (K-562 leukemia): > 100 µM
GI50 (PC-3 prostate): > 100 µM
TGI (PC-3 prostate): > 100 µM
GI50 (SK-MEL-28 melanoma): > 62.1 µM
TGI (SK-MEL-28 melanoma): > 100 µM
GI50 (IGROV1 ovarian): 9.02 µM
TGI (IGROV1 ovarian): > 100 µM
GI50 (OVCAR-4 ovarian): > 100 µM
TGI (OVCAR-4 ovarian): > 100 µM
GI50 (MDA-MB-435): 5.31 µM
TGI (MDA-MB-435): > 100 µM
GI50 (SW-620 colon): 9.78 µM
TGI (SW-620 colon): > 100 µM
GI50 (NCI-H23 lung): 1.95 µM
TGI (NCI-H23 lung): > 100 µM
GI50 (SNB-75 CNS): > 40.9 µM
TGI (SNB-75 CNS): > 100 µM
GI50 (BT-549 breast): 4.61 µM
TGI (BT-549 breast): > 100 µM
GI50 (HCT-116 colon): 1.7 µM
TGI (HCT-116 colon): > 100 µM
GI50 (CAKI-1 renal): 1.79 µM
TGI (CAKI-1 renal): > 100 µM
GI50 (MOLT-4 leukemia): 1.65 µM
TGI (MOLT-4 leukemia): > 100 µM
GI50 (SK-MEL-5 melanoma): 0.399 µM
TGI (SK-MEL-5 melanoma): > 100 µM
GI50 (DU-145 prostate): 2.85 µM
TGI (DU-145 prostate): > 100 µM
GI50 (KM12 colon): > 100 µM
TGI (KM12 colon): > 100 µM
GI50 (NCI/ADR-RES ovarian): 4.81 µM
TGI (NCI/ADR-RES ovarian): > 100 µM
GI50 (NCI-H226 lung): 20.7 µM
TGI (NCI-H226 lung): > 100 µM
GI50 (SF-268 CNS): 3.14 µM
TGI (SF-268 CNS): > 100 µM
GI50 (CCRF-CEM leukemia): 0.557 µM
TGI (CCRF-CEM leukemia): > 100 µM
